Test systems include A498 renal; A549 NSCLC; EKVX NSCLC; K-562 leukemia; MDA-MB-435; OVCAR-5 ovarian; OVCAR-8 ovarian; SF-268 CNS; SK-MEL-2 melanoma; UACC-62 melanoma.
Holding throughout (experiment): DTP human tumour cell line panel, 48 h

“And” between values parts separate entries of the source, which are not always exact repeats. Identical values can stand only once.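 Values below derive from 48-hour exposures of cells grown in 96-well plates, with endpoints linearly interpolated between the two concentrations bracketing the appropriate inhibition level. GI50 marks 50% less growth. TGI is the concentration that stops growth completely.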

Regarding `CCCCCCCCCCCCCC[C@@H](O)[C@H]1CC[C@H]([C@H]2CC[C@H]([C@H](O)CCCCCC[C@@H](O)CC3=C[C@H](C)OC3=O)O2)O1`, the GI50 in the assay on A498 renal is 3.27 µM; in the assay on A549 NSCLC, 1.59 µM; in the assay on EKVX NSCLC it was 1.68 µM; in the assay on K-562 leukemia it was 1.47 µM; in the assay with OVCAR-5 ovarian it was 4.61 µM; with OVCAR-8 ovarian, over 25 µM. The GI50 in the assay on SF-268 CNS is 1.69 µM; in the assay on SK-MEL-2 melanoma, 1.52 µM; in the assay with UACC-62 melanoma, over 25 µM. The concentration for total growth inhibition (TGI) in the assay on A498 renal is over 25 µM; with A549 NSCLC, over 25 µM; in the assay on EKVX NSCLC, 9.27 µM and > 25 µM; in the assay with K-562 leukemia it was over 25 µM; in the assay on MDA-MB-435, over 25 µM; in the assay on OVCAR-5 ovarian it was over 25 µM. The TGI was 3.94 µM and > 25 µM in the assay on OVCAR-8 ovarian; 5.04 µM and > 25 µM with SF-268 CNS; 3.86 µM and > 25 µM in the assay on SK-MEL-2 melanoma; 4.5 µM and > 25 µM in the assay with UACC-62 melanoma.
In the case of `CC[C@H](C)[C@H](NC(=O)CN(C)C)C(=O)N(C)[C@H](C[C@@H](OC(C)=O)c1nc(C(=O)NC23CC(C(=O)OC)(C2)C3)cs1)C(C)C`, the GI50 is 1.47 µM in the assay with A498 renal; 1.62 µM in the assay with A549 NSCLC; 1.53 µM in the assay on EKVX NSCLC; 0.0733 µM with K-562 leukemia; 0.0461 µM in the assay on MDA-MB-435; over 6.63 µM in the assay on OVCAR-5 ovarian. Also, the GI50 in the assay on OVCAR-8 ovarian is 0.46 µM; in the assay on SF-268 CNS, 0.831 µM; with SK-MEL-2 melanoma, 1.51 µM; in the assay with UACC-62 melanoma, 0.237 µM. Further, the total growth inhibition concentration (TGI) in the assay on A498 renal is over 25 µM; in the assay with A549 NSCLC, over 25 µM; in the assay on EKVX NSCLC it was over 25 µM; in the assay on K-562 leukemia it was over 25 µM; with MDA-MB-435 it was 0.298 µM; with OVCAR-5 ovarian, over 25 µM. Further, the concentration for total growth inhibition (TGI) with OVCAR-8 ovarian, in the assay with SF-268 CNS, in the assay on SK-MEL-2 melanoma and with UACC-62 melanoma was over 25 µM in each case.
For `CC(=O)c1c(C)[nH]c(-c2nc3ccc(N4CCN(C)CC4)cc3[nH]2)c1-c1ccccc1`, the GI50 is 0.522 µM in the assay on A498 renal; 1.45 µM with A549 NSCLC; 2.03 µM in the assay with EKVX NSCLC; 0.779 µM in the assay with K-562 leukemia; 0.505 µM with MDA-MB-435; 1.12 µM in the assay on OVCAR-5 ovarian. The GI50 in the assay with OVCAR-8 ovarian is 3.08 µM; in the assay on SF-268 CNS, 5.24 µM; with SK-MEL-2 melanoma, 4.02 µM; with UACC-62 melanoma it was 0.274 µM. Moreover, the TGI with A498 renal was 4.79 µM; in the assay on A549 NSCLC, 22.5 µM; in the assay on EKVX NSCLC, over 100 µM; in the assay with K-562 leukemia, over 100 µM; in the assay on MDA-MB-435 it was 12.9 µM; in the assay on OVCAR-5 ovarian, 22.9 µM. The TGI in the assay on OVCAR-8 ovarian was over 100 µM; in the assay on SF-268 CNS it was 39.6 µM; in the assay on SK-MEL-2 melanoma, 22.2 µM; with UACC-62 melanoma it was 12.7 µM.
For `C=CC(=O)N1CC2(CC(n3nc(-c4ccc5c(cnn5C)c4)c(-c4c(Cl)c(C)cc5[nH]ncc45)c3C)C2)C1`, the GI50 is 3.99 µM in the assay with A498 renal; 3.05 µM in the assay on A549 NSCLC; 3.23 µM in the assay with EKVX NSCLC; 2.78 µM with K-562 leukemia; 2.72 µM in the assay with MDA-MB-435; 4.03 µM in the assay on OVCAR-5 ovarian. The GI50 in the assay with OVCAR-8 ovarian is 2.13 µM; in the assay with SF-268 CNS it was 4.5 µM; with SK-MEL-2 melanoma, 1.91 µM; with UACC-62 melanoma, 1.94 µM. The TGI in the assay with A498 renal was 13.3 µM; in the assay with A549 NSCLC, 12.5 µM; in the assay on EKVX NSCLC it was 11.1 µM; in the assay on K-562 leukemia it was over 100 µM; in the assay with MDA-MB-435 it was 7.65 µM; in the assay with OVCAR-5 ovarian, 13.9 µM. Moreover, the TGI is 4.84 µM in the assay with OVCAR-8 ovarian, 20 µM with SF-268 CNS, 3.63 µM with SK-MEL-2 melanoma and 4.04 µM in the assay with UACC-62 melanoma.
In the case of `COC(=O)C=Cc1ccc2nncnc2c1` (mixture of isomers), the concentration for total growth inhibition (TGI) with A498 renal was over 100 µM; with A549 NSCLC it was 56.4 µM; in the assay with EKVX NSCLC it was over 100 µM; in the assay with K-562 leukemia, over 100 µM; in the assay on MDA-MB-435 it was 35.5 µM; with OVCAR-5 ovarian, over 100 µM. Moreover, the TGI is over 100 µM in the assay on OVCAR-8 ovarian, over 100 µM in the assay on SF-268 CNS, over 100 µM in the assay with SK-MEL-2 melanoma and 32.2 µM in the assay with UACC-62 melanoma.
For `c1cc2c(cn1)Nc1ccncc1S2`, the GI50 in the assay with A498 renal was 19.5 µM; in the assay with A549 NSCLC, 32.8 µM; in the assay with EKVX NSCLC, 55.8 µM; with K-562 leukemia, 55.4 µM; in the assay on MDA-MB-435, 73.9 µM; in the assay on OVCAR-5 ovarian, 25.2 µM. For the same molecule, the GI50 with OVCAR-8 ovarian was 35.7 µM; in the assay with SF-268 CNS it was 30.5 µM; in the assay with SK-MEL-2 melanoma, 35.2 µM; with UACC-62 melanoma, 41.9 µM. The TGI in the assay on A498 renal was 55.4 µM; with A549 NSCLC it was over 100 µM; in the assay with EKVX NSCLC, over 100 µM; in the assay on K-562 leukemia, over 100 µM; in the assay with MDA-MB-435, over 100 µM; in the assay on OVCAR-5 ovarian it was over 100 µM. Moreover, the concentration for total growth inhibition (TGI) in the assay on OVCAR-8 ovarian, with SF-268 CNS, with SK-MEL-2 melanoma and in the assay with UACC-62 melanoma was over 100 µM throughout.
Regarding `N#CC1c2ccccc2C=CN1C(=O)N(c1ccccc1)c1ccccc1` (centres undefined), the GI50 was 7.14 µM in the assay with A498 renal; 19.7 µM in the assay with A549 NSCLC; 5.7 µM in the assay with EKVX NSCLC; 3.06 µM with K-562 leukemia; 1.74 µM with MDA-MB-435; 7.45 µM with OVCAR-5 ovarian. The GI50 in the assay on OVCAR-8 ovarian was 13.3 µM; with SF-268 CNS, 4.31 µM; with SK-MEL-2 melanoma it was 3.97 µM; with UACC-62 melanoma it was 2.13 µM. The TGI with A498 renal was 24.4 µM; with A549 NSCLC, 51.8 µM; with EKVX NSCLC, 18.9 µM; in the assay on K-562 leukemia, over 100 µM; with MDA-MB-435, 3.81 µM; with OVCAR-5 ovarian it was 24.3 µM. Moreover, the TGI in the assay with OVCAR-8 ovarian came to 54.1 µM; in the assay with SF-268 CNS, 15.4 µM; in the assay with SK-MEL-2 melanoma, 13.6 µM; with UACC-62 melanoma, 5.57 µM.
Turning to `CCOC(=O)COc1ccc2c(C)cc(=O)oc2c1`, the concentration for total growth inhibition (TGI) in the assay with A498 renal, with A549 NSCLC, in the assay on EKVX NSCLC, in the assay with K-562 leukemia, in the assay on MDA-MB-435 and with OVCAR-5 ovarian was over 100 µM throughout. The total growth inhibition concentration (TGI) in the assay with OVCAR-8 ovarian, in the assay on SF-268 CNS, with SK-MEL-2 melanoma and with UACC-62 melanoma was over 100 µM each time.
